# Measured values from US20250144442A1, “LIGHT-GUIDING ADHESIVE PATCH” (SAMSUNG LIFE PUBLIC WELFARE FOUNDATION, priority 2023, published 2025).
# Test system: malignant glioma U87 cell line
# Test: WST-1 cell viability assay for PDT anti-cancer effectiveness
# Type: cell-based
# Settings: 50 μM Hypericin, 2 hours incubation at 37° C., U87 cells, no simultaneous light; FIG. 11a
# Method: To maximize light transmission, a 530±15 nm LED was used to verify the improvement in PDT efficiency with a developed light-guiding adhesive patch using the malignant glioma U87 cell line.
# Specifically, the anti-cancer effectiveness through PDT was verified using the WST-1 cell viability assay. During the PDT efficiency verification, initial tests were conducted to establish PDT conditions, investigating the toxicity of the photosensitizer and light exposure.
smiles,measurement,value
Cc1cc(O)c2c(=O)c3c(O)cc(O)c4c5c(O)cc(O)c6c(=O)c7c(O)cc(C)c8c1c2c(c34)c(c78)c65 [Hypericin],inhibition of cell viability (toxicity of the photosensitizer),No specific inhibition of cell viability
